Reference: patent publication US20190160035A1, “METHOD OF TREATMENT” (QBIOTICS LIMITED, priority 2016, published 2019)
Entries after “also recorded” stand apart in the source; their conditions may differ.

Test system: cutaneous Mast Cell Tumor (MCT)
Experiment: Example 2: dose de-escalation study (1.0, 0.5, 0.2 mg/mL; 0.5 mL per cm^3 tumor), RECIST v.1.1 tumor response
Type: in vivo, dogs
Conditions: for RECIST classification: Day 21, one value per dog
Method: A multi-site, unmasked, uncontrolled, non-randomized dosage characterization study in dogs was performed under field conditions using dose de-escalation.
Dogs were enrolled in the study as they presented to participating veterinary practices meeting the necessary eligibility criteria. As the study design was a dose de-escalation study, dogs were allocated to the highest dose initially (1.0 mg Compound 1 per mL). Each dose comprised a total cohort of 10 dogs participating across all clinics. Once the cohort of 10 dogs was treated at the highest dose, subsequent dogs were assigned to the 2nd cohort (0.5 mg Compound 1 per mL) and dosing continued through de-escalation until completion of 7 evaluable enrolments in the 3rd cohort (0.2 mg Compound 1 per mL).
Each Compound 1 preparation (1.0, 0.5, and 0.2 mg/mL) was pre-prepared in a 30% propylene glycol, 30 mM Acetate buffer pH 4.0 solution.
Compound 1 was administered to each dog at 0.5 mL per cm^3 of tumor volume as determined on the day of dosing. Digital calipers were used to measure tumor axes.
Wherever possible, the tumor and a 2 cm border surrounding the tumor was shaved prior to treatment. To deliver the drug formulation, the needle of the dosing syringe was inserted into the tumor at the injection point and moved in a radial manner in 2- and 3-dimensions with approximately 0.1 mL of formulation delivered to each 0.2 cm^3 of tumor mass. Study dogs were clinically examined at approximately 24 and 48 hours, 7, 14 and 21 days post-treatment.
Prophylactic and supportive medications considered for use in this study to prevent paraneoplastic MCT-induced adverse events such as Darier's sign and gastric upset included cetrizine, chlorpheniramine, omeprazole, acetylpromazine, methadone and meloxicam. Some supportive therapies were given up to 5 days post treatment (see Table 14). Additional approved supportive therapies (if required) included fentanyl (patch) or tramadol analgesia, or antibiotic (amoxicillin/clavulanic acid).
Determination of efficacy was based on objective tumor measurements made according to the RECIST v.1.1 guidelines (Eisenhauer et al., 2009) using unidirectional tumor measurements.
Pairwise comparison of categorical responses to treatment between treatment groups at each time point post-treatment were compared using Fisher's Exact Test. Using the RECIST classification (Eisenhauer et al., 2009), tumor data was analysed to determine the effectiveness of, and differences between, treatments. Generalised linear modeling was used to examine the combined effects of treatment dose, time post-treatment and other potentially explanatory variables. Generalised estimating equations with appropriate error structure (and controlled for repeated measurements of individuals) were used to examine categorical response to treatment and changes in tumor volume measurement. Tumor volume analysis was also controlled for pre-treatment tumor volume.
MCT measurements were recorded using digital calipers. Measurements were taken pre-treatment and at 7(±1), 14(±1) and 21(±2) days post treatment. The length (cm) was designated the longest measurable axis; the width (cm) was the tumor at the widest point perpendicular to the length; gentle manipulation of the MCT to measure the depth (cm) using the calipers was considered acceptable. Determination of efficacy was based on objective tumor measurements made according to the RECIST v.1.1 guideline using the longest unidirectional measurement (Eisenhauer et al. 2009) recorded at each timepoint. RECIST criteria were only applied to target lesions as Compound 1 is not intended as a systemic therapy. […] RECIST v.1.1 results are summarized below in Table 18.

C/C=C(\C)C(=O)O[C@@H]1[C@@H](C)[C@@]2(O)[C@H]([C@@H]3C(C)(C)[C@]13OC(=O)[C@@H](C)CC)[C@@H]1O[C@]1(CO)[C@@H](O)[C@]1(O)C(=O)C(C)=C[C@H]12 [Compound 1, 12-tigloyl-13-(2-methylbutanoyl)-6,7-epoxy-4,5,9,12,13,20-hexahydroxy-1-tigliaen-3-one]
Number of dogs with complete response (CR) (cohort 1, 1.0 mg/mL, 10 dogs): 9
RECIST classification (cohort 2, 0.5 mg Compound 1/mL): PR (partial response (PR, at least 30% decrease in the longest diameter of target lesion)); also recorded: PD (progressive disease (PD, greater than 20% increase in the target lesion))
Number of dogs with complete response (CR) (cohort 2, 0.5 mg/mL, 10 dogs): 5
Number of dogs with partial response (PR) (cohort 2, 0.5 mg/mL, 10 dogs): 1
Number of dogs with progressive disease (PD) (cohort 2, 0.5 mg/mL, 10 dogs): 1
RECIST classification (cohort 3, 0.2 mg Compound 1/mL): PR (partial response (PR, at least 30% decrease in the longest diameter of target lesion))
Number of dogs showing efficacy (greater than a 70% reduction in tumor volume at 21 days) (cohort 3, 0.2 mg/mL): < 3
Number of dogs with complete response (CR) (cohort 3, 0.2 mg/mL, 7 dogs): 2
Number of dogs with partial response (PR) (cohort 3, 0.2 mg/mL, 7 dogs): 1
Mitotic nuclei in post-surgical biopsy material of residual tumor (dog GCV-107, cohort 1): no mitotic nuclei identified
Total tumor volume reduction (modified ellipsoidal calculation) (dog GCV-107, cohort 1, Day 21): 36%
Unidirectional tumor measurement (length) decrease (dog GCV-107, cohort 1, by Day 21): 23%
